Source: patent US8759400B2, “Histone deacetylase inhibitors for enhancing activity of antifungal agents” (MethylGene Inc., priority 2005, dated 2014)
Like-named read-outs stand apart in the source and are kept apart here.

How the values were obtained:
C. glabrata (ATCC 90030) [1] = assay: MIC80 and checkerboard synergy with antifungal agents; assay type: cell-based, Candida glabrata
HMEC = assay: Mammalian cytotoxicity, MTT reduction
HDAC [2] = assay: HDAC inhibitory activity in fungal protoplasts (Fluor-de-Lys); assay type: cell-based, Candida glabrata; settings: C. glabrata protoplasts; for HDAC inhibition, per cent in parentheses beside IC50 >20: concentration not given
Protocol: (§1) Protoplasts of C. albicans and C. glabrata are prepared by the […] method of Franzusoff et al.

HDAC [3] = assay: as above; assay type: cell-based, Candida albicans; settings: C. albicans protoplasts; for HDAC inhibition, per cent in parentheses beside IC50 >20: concentration not given
Protocol: as §1

C. albicans (ATCC 90028) = assay: MIC80 and checkerboard synergy with antifungal agents; assay type: cell-based, Candida albicans
A. fumigatus ATCC 1022 = assay: MIC80 and checkerboard synergy, broth microdilution (NCCLS M38-A); assay type: cell-based, Aspergillus fumigatus; settings: for conc. for 4-fold synergy: 48 hours; for MIC80: compound alone
HDAC [4] = assay: HDAC inhibitory activity in fungal protoplasts (Boc-Lys(Ac)-AMC); assay type: cell-based, Aspergillus fumigatus; settings: A. fumigatus protoplasts
C. glabrata (ATCC 90030) [5] = assay type: cell-based; settings: agar plates containing 4×MIC of the relevant azole alone
C. dubliniensis = assay: Clinical isolates, CLSI M27-A2 broth microdilution and checkerboard; assay type: cell-based; settings: Candida dubliniensis
[6] = Nakaseomyces glabratus, ATCC90030, compound alone, C. glabrata (ATCC 90030)
[7] = Candida albicans, ATCC90028, compound alone, C. albicans (ATCC 90028), read-out: MIC80
[8] = with ketoconazole, A. fumigatus ATCC 1022
[9] = Nakaseomyces glabratus, ATCC90030, compound alone, C. glabrata (ATCC 90030), read-out: MIC80
[10] = with fluconazole, A. fumigatus ATCC 1022
[11] = with itraconazole, A. fumigatus ATCC 1022
[12] = with voriconazole, A. fumigatus (ATCC 1022)

O=C(Cc1ccc(CCCCCc2ccccc2)cc1)NO
MIC50 (C. glabrata (ATCC 90030) [1]; [6]): 6.25 µg/mL

O=C(Cc1ccc(CCCCc2ccc(C(F)(F)F)cc2)cc1)NO
MIC50 (C. glabrata (ATCC 90030) [1]; [6]): > 25 µg/mL

O=C(Cc1cccc(CCCCc2ccccc2)c1)NO
MIC50 (C. glabrata (ATCC 90030) [1]; [6]): 32 µg/mL

O=C(Cc1ccc(CCC#Cc2ccc3nonc3c2)cc1)NO
MIC50 (C. glabrata (ATCC 90030) [1]; [6]): > 25 µg/mL

O=C(Cc1ccc(CCCCc2ccc3c(c2)OCO3)cc1)NO
MIC50 (C. glabrata (ATCC 90030) [1]; [6]): > 25 µg/mL

O=C(Cc1ccc(CCCCc2ccccc2C(F)(F)F)cc1)NO
MIC50 (C. glabrata (ATCC 90030) [1]; [6]): 12.5 µg/mL

O=C(Cc1ccc(CCCCc2cccc(C(F)(F)F)c2)cc1)NO
MIC50 (C. glabrata (ATCC 90030) [1]; [6]): 12.5 µg/mL

O=C(Cc1ccc(CCCCc2cc(F)c(F)cc2F)cc1)NO
MIC50 (C. glabrata (ATCC 90030) [1]; [6]): 3.1 µg/mL

O=C(Cc1ccc(CCCCc2ccc3[nH]ccc3c2)cc1)NO
MIC50 (C. glabrata (ATCC 90030) [1]; [6]): > 25 µg/mL

O=C(CCCCCC/C(=N\O)c1ccc(-c2ccccc2)cc1)NO
MTT HMEC (HMEC): 6 µM

O=C(NO)c1cccc(CCCc2ccccc2)c1 [Cpd 1]
HDAC inhibition IC50 (HDAC [2]): > 20 µg/mL | HDAC inhibition, per cent in parentheses beside IC50 >20 (HDAC [2]): 38% | HDAC inhibition IC50 (HDAC [3]): 9.1 µg/mL | MIC (C. albicans (ATCC 90028); [7]): > 16 µg/mL

O=C(NO)c1ccc(CCCCCc2ccccc2)cc1 [Cpd 3]
MTT HMEC (HMEC): 9 µM

O=C(Cc1ccc(CCCc2ccccc2)cc1)NO [Cpd 5]
conc. for 4-fold synergy (A. fumigatus ATCC 1022; [8]): 4 µg/mL | HDAC inhibition IC50 (HDAC [2]): > 20 µg/mL | HDAC inhibition, per cent in parentheses beside IC50 >20 (HDAC [2]): 37% | HDAC inhibition IC50 (HDAC [3]): > 20 µg/mL | HDAC inhibition, per cent in parentheses beside IC50 >20 (HDAC [3]): 42% | MIC (C. albicans (ATCC 90028); [7]): > 8 µg/mL | MTT HMEC (HMEC): 47 µM | MIC (C. glabrata (ATCC 90030) [1]; [9]): > 50 µg/mL

O=C(CCc1ccc(CCc2ccccc2)cc1)NO [Cpd 7]
HDAC inhibition IC50 (HDAC [2]): > 20 µg/mL | HDAC inhibition, per cent in parentheses beside IC50 >20 (HDAC [2]): 27% | HDAC inhibition IC50 (HDAC [3]): > 20 µg/mL | HDAC inhibition, per cent in parentheses beside IC50 >20 (HDAC [3]): 15% | MIC (C. albicans (ATCC 90028); [7]): > 8 µg/mL | MTT HMEC (HMEC): 10 µM | MIC (C. glabrata (ATCC 90030) [1]; [9]): 16 µg/mL

COC(c1ccc(N(C)C)cc1)C(C)/C=C(C)/C=C/C(=O)NO (centres unmarked) [Cpd 10]
MTT HMEC (HMEC): 50 µM

COc1ccc(C(OC)C(C)(C)CCCCC(=O)NO)cc1 (centres unmarked) [Cpd 11]
HDAC inhibition IC50 (HDAC [2]): 50 µg/mL | MTT HMEC (HMEC): 50 µM

CC(/C=C/C(=O)NO)=C\C(C)Cc1ccc(N(C)C)cc1 (centres unmarked) [Cpd 12]
conc. for 4-fold synergy (A. fumigatus ATCC 1022; [8]): 0.125 µg/mL | MTT HMEC (HMEC): 44 µM

C[C@H](/C=C/C=C/C(=O)NO)Oc1ccc(-c2ccccc2)cc1 [Cpd 15]
HDAC inhibition IC50 (HDAC [3]): > 20 µg/mL | HDAC inhibition, per cent in parentheses beside IC50 >20 (HDAC [3]): 18%

O=C(NO)c1ccc(CCCC(O)c2ccc3ccccc3c2)cc1 (centres unmarked) [Cpd 16]
MTT HMEC (HMEC): 25 µM

O=C(/C=C/c1ccc(CNc2cccc(Cl)c2)cc1)NO [Cpd 18]
HDAC inhibition IC50 (HDAC [3]): ~16 µg/mL

Nc1ccc(-c2cccs2)cc1-c1cccs1 [Cpd 19]
conc. for 4-fold synergy (24 hr) (C. glabrata (ATCC 90030) [1]; with ketoconazole, C. glabrata (ATCC 90030)): 0.5 (24 hr) μg/ml

O=C(Cc1ccccc1)NC(=S)Nc1ccc(Nc2ccnc3ccsc23)cc1 [Cpd 20]
HDAC inhibition IC50 (HDAC [3]): > 20 µg/mL | HDAC inhibition, per cent in parentheses beside IC50 >20 (HDAC [3]): 16% | MTT HMEC (HMEC): 50 µM

N#Cc1ccc(-c2ccc(OCCC(=O)NO)cc2)cc1 [Cpd 21]
MTT HMEC (HMEC): 50 µM

O=C(NO)c1ccc(CN2c3ccccc3NC(=O)[C@H]2Cc2ccc3ccccc3c2)cc1 [Cpd 22]
HDAC inhibition IC50 (HDAC [3]): ~0.6 µg/mL | MTT HMEC (HMEC): 8 µM

O=C(NO)c1ccc(CN2c3ccccc3NC(=O)[C@H]2Cc2cccc(C(F)(F)F)c2)cc1 [Cpd 23]
HDAC inhibition IC50 (HDAC [3]): ~0.6 µg/mL

CC(Cc1ccc(C(C)(C)C)cc1)CN1C[C@@H](C)O[C@@H](C)C1 (some centres unmarked) [Fenpropimorph, fenpropimorph, reference compound]
MIC (C. glabrata (ATCC 90030) [1]; Nakaseomyces glabratus, ATCC90030, fenpropimorph alone, C. glabrata, read-out: Fenpropimorph MIC): 6.25 µg/mL

C[C@@H]([C@H](N)C(=O)N[C@H](C(=O)O)[C@H]1O[C@@H](n2ccc(=O)[nH]c2=O)[C@H](O)[C@@H]1O)[C@H](O)c1ccc(O)cn1 [Nikkomycin, nikkomycin, reference compound]
MIC (C. albicans (ATCC 90028); Candida albicans, ATCC90028, read-out: Nikkomycin MIC): 100 µg/mL

O=C(CCCCCCC(=O)Nc1ccccc1)NO [SAHA, suberoylanilide hydroxamic acid, reference compound]
MIC80 (C. albicans (ATCC 90028); [7]): > 128 µg/mL | MTT HMEC (HMEC): 18 µM | MIC80 (C. glabrata (ATCC 90030) [1]; [9]): > 64 µg/mL

CC(/C=C/C(=O)NO)=C\[C@@H](C)C(=O)c1ccc(N(C)C)cc1 [TSA, trichostatin A, reference compound]
MIC80 (A. fumigatus ATCC 1022; Aspergillus fumigatus, ATCC1022, A. fumigatus ATCC 1022, read-out: MIC80): 64 to 128 µg/mL | conc. for 4-fold synergy (A. fumigatus ATCC 1022; [8]): 4 µg/mL | HDAC inhibition IC50 (HDAC [2]): ~0.06 µg/mL | HDAC inhibition IC50 (HDAC [3]): 0.07 µg/mL | MIC80 (C. albicans (ATCC 90028); [7]): > 128 µg/mL | HDAC inhibition IC50 (HDAC [4]): 0.01 µg/mL | MTT HMEC (HMEC): 1 µM | MIC80 (C. glabrata (ATCC 90030) [1]; [9]): 64 µg/mL

CN(C/C=C/C#CC(C)(C)C)Cc1cccc2ccccc12 [Terbinafine, terbinafine, reference compound]
MIC (C. albicans (ATCC 90028); Candida albicans, ATCC90028, terbinafine alone, C. albicans, read-out: Terbinafine MIC): 0.39 µg/mL

CC(/C=C/C(=O)NO)=C\C(C)Cc1ccc(N(C)C)cc1 (centres unmarked) [drawing 125]
MTT HMEC (HMEC): 44 µM

CC(/C=C/C(=O)NO)=C\C(C)Cc1ccc(N(C)C)cc1 (centres unmarked) [drawing 131]
MTT HMEC (HMEC): 44 µM | conc. for 4-fold synergy (24 hr) (C. glabrata (ATCC 90030) [1]; with itraconazole, C. glabrata (ATCC 90030)): 1.56 (24 hr) μg/ml

CC(/C=C/C(=O)NO)=C\C(C)Cc1ccc(N(C)C)cc1 (centres unmarked) [drawing 137]
MTT HMEC (HMEC): 44 µM

CC(/C=C/C(=O)NO)=C\C(C)Cc1ccc(N(C)C)cc1 (centres unmarked) [drawing 143]
MTT HMEC (HMEC; Table 9 head): 4.4e-05 µM

O=C(Cc1ccc(CCCCc2ccccc2)cc1)NO [drawing 144]
MTT HMEC (HMEC; Table 9 head): 1.3e-05 µM

O=C(Cc1ccc(CCCc2ccccc2)cc1)NO [drawing 145]
MTT HMEC (HMEC; Table 9 head): 4.7e-05 µM

O=C(CCc1ccc(CCCc2ccccc2)cc1)NO [drawing 146]
MTT HMEC (HMEC; Table 9 head): 4e-05 µM

O=C(CCc1ccc(CCc2ccccc2)cc1)NO [drawing 147]
MTT HMEC (HMEC; Table 9 head): 1e-05 µM

CC(/C=C/C(=O)NO)=C\C(C)Cc1ccc(N(C)C)cc1 (centres unmarked) [drawing 148]
conc. for 4-fold synergy (A. fumigatus ATCC 1022; [10]): 0.25 µg/mL | HDAC inhibition IC50 (HDAC [4]): 2.0 µg/mL | MTT HMEC (HMEC): 44 µM

O=C(Cc1ccc(CCCCc2ccccc2)cc1)NO [drawing 149]
conc. for 4-fold synergy (A. fumigatus ATCC 1022; [10]): >1 µg/mL

CC(/C=C/C(=O)NO)=C\C(C)Cc1ccc(N(C)C)cc1 (centres unmarked) [drawing 150]
conc. for 4-fold synergy (A. fumigatus ATCC 1022; [11]): 0.25 µg/mL | HDAC inhibition IC50 (HDAC [4]): 2.0 µg/mL | MTT HMEC (HMEC): 44 µM

O=C(Cc1ccc(CCCCc2ccccc2)cc1)NO [drawing 151]
conc. for 4-fold synergy (A. fumigatus ATCC 1022; [11]): >1 µg/mL

CC(/C=C/C(=O)NO)=C\C(C)Cc1ccc(N(C)C)cc1 (centres unmarked) [drawing 152]
conc. for 4-fold synergy (A. fumigatus ATCC 1022; [12]): 0.25 µg/mL | HDAC inhibition IC50 (HDAC [4]): 2.0 µg/mL | MTT HMEC (HMEC): 44 µM

O=C(Cc1ccc(CCCCc2ccccc2)cc1)NO [drawing 153]
conc. for 4-fold synergy (A. fumigatus ATCC 1022; [12]): 1 µg/mL

OC(Cn1cncn1)(Cn1cncn1)c1ccc(F)cc1F [fluconazole]
frequency of resistant C. glabrata mutants (C. glabrata (ATCC 90030) [5]): 5×10^−6 | MIC (C. dubliniensis; 48 h, read-out: FLU MIC): 0.12 µg/mL

C[C@@H](c1ncncc1F)[C@](O)(Cn1cncn1)c1ccc(F)cc1F [voriconazole, reference compound]
MIC (C. dubliniensis; voriconazole alone, C. dubliniensis clinical isolates, CLSI M27-A2, 48 hour endpoint, read-out: VOR MIC): 0.007 µg/mL

Oxamflatin [reference compound]
MIC80 (A. fumigatus ATCC 1022; A. fumigatus ATCC 1022): >128 µg/mL | conc. for 4-fold synergy (A. fumigatus ATCC 1022; [8]): >128 µg/mL | HDAC inhibition IC50 (HDAC [2]): ~7 µg/mL | HDAC inhibition IC50 (HDAC [3]): >20 µg/mL | MIC80 (C. albicans (ATCC 90028); compound alone, C. albicans (ATCC 90028)): >64 µg/mL | conc. for 4-fold synergy (C. albicans (ATCC 90028); with ketoconazole, C. albicans (ATCC 90028), 48 hours): 16 µg/mL | HDAC inhibition IC50 (HDAC [4]): 5.0 µg/mL | MTT HMEC (HMEC): 2 µM | MIC80 (C. glabrata (ATCC 90030) [1]; compound alone, C. glabrata (ATCC 90030)): >64 µg/mL | conc. for 4-fold synergy (C. glabrata (ATCC 90030) [1]; with ketoconazole, C. glabrata (ATCC 90030), 48 hours): 128 µg/mL
